Source: patent US20030212123A1, “COX-2 selective carprofen for treating pain and inflammation in dogs” (Pfizer Inc., priority 1997, published 2003)
Like-named read-outs stand apart in the source and are kept apart here.

What was measured:
Type in all cases: cell-based, dog
canine COX-1 = target: T1, canine COX-1 (Canis lupus familiaris, UniProt Q8HZR1); assay: Canine COX-1 activity: washed canine platelets, A23187-stimulated TXB2 by EIA; details: results of repeated tests averaged
T1 construct: from tissue; host or cells: washed platelets from donor dog blood
T1 sequence (Q8HZR1 28-603): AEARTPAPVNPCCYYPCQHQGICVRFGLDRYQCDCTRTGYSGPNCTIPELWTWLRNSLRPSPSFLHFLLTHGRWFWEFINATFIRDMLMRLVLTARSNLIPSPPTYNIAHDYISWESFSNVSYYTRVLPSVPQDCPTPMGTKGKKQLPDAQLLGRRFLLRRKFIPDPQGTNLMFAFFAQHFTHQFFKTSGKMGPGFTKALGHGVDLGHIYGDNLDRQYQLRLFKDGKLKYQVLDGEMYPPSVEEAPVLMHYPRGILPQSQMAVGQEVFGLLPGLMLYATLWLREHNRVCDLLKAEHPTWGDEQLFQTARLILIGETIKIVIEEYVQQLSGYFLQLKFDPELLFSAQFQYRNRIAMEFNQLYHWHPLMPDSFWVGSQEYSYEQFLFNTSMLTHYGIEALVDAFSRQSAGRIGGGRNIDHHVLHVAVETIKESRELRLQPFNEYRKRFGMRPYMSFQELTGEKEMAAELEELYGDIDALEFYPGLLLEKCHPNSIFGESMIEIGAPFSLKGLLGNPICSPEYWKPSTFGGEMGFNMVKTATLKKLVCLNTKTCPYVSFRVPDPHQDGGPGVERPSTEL
Protocol: Protocol for Evaluation of Canine COX-1 Activity
Test drug compounds were solubilized and diluted the day before the assay was to be conducted with 0.1 mL of DMSO/9.9 mL of Hank's balanced salts solution (HBSS), and stored overnight at 4° C. On the day that the assay was carried out, citrated blood was drawn from a donor dog, centrifuged at 190×g for 25 min at room temperature, and the resulting platelet-rich plasma was then transferred to a new tube for further procedures. The platelets were washed by centrifuging at 1500×g for 10 min at room temperature. The platelets were washed with platelet buffer comprising Hank's buffer (Ca free) with 0.2% bovine serum albumin (BSA) and 20 mM HEPES. […] Then, 100 μl of canine washed platelets were added and the samples were incubated at 37° C. for 15 min, after which the reaction was stopped by adding 20 μl of 77 mM EDTA. The plates were then centrifuged at 2000×g for 10 min at […], after which 50 μl of supernatant was assayed for thromboxane B2 (TXB2) by enzyme-immunoassay (EIA).

canine COX-2 [1] = target: T2, canine COX-2 (Canis lupus familiaris, UniProt Q8SPQ9); assay: Canine COX-2 activity: LPS-treated DH82 canine histocytoma cells, PGE2 by EIA
T2 construct: host or cells: DH82 canine histocytoma cells, LPS-treated overnight
T2 sequence (Q8SPQ9 18-604): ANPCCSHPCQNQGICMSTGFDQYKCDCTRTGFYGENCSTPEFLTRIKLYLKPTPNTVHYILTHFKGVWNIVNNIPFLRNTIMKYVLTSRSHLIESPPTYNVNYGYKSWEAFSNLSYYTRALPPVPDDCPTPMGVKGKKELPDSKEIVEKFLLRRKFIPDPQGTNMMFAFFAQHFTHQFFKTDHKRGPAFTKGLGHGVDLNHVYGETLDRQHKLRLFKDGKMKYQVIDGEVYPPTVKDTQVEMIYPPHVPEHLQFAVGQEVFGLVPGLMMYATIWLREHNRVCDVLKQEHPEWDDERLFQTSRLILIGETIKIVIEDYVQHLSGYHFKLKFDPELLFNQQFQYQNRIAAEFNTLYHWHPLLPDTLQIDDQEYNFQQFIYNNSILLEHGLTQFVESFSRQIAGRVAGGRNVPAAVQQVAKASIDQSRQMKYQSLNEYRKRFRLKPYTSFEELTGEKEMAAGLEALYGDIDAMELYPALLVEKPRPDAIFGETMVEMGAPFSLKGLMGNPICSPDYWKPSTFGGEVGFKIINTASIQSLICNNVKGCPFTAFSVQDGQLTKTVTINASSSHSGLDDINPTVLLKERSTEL
Protocol: (§1) Protocol for Evaluation of Canine COX-2 Activity
(§2) A canine histocytoma (macrophage-like) cell line from the American Type Culture Collection designated as DH82, was used in setting up the protocol for evaluating the COX-2 inhibition activity of various test drug compounds. There was added to flasks of these cells 10 μg/mL of LPS, after which the flask cultures were incubated overnight. The same test drug compound dilutions as described above for the COX-1 protocol were used for the COX-2 assay and were prepared the day before the assay was carried out. […] The test sample suspensions were incubated for 1 hr and then centrifuged at 1000 rpm for 10 min at 4° C., after which 50 μl aliquots of each test drug sample were delivered to EIA plates. The EIA was performed for prostaglandin E2 (PGE2), and the pg/mL concentration of PGE2 was calculated from the standard line included on each plate. […] The results were averaged, and a single COX-1:COX-2 ratio was calculated.

canine COX-2 [2] = assay: as above
Protocol: as §1, §2

[3] = DH82 cells, PGE2, results of repeated tests averaged, read-out: COX-2 IC50
[4] = ratio of canine COX-1 IC50 to COX-2 IC50, higher = more COX-2 selective

With COc1ccc2cc(CC(=O)O)ccc2c1 [6-MNA, 6-methoxy-2-naphthyl-acetic acid] the IC50 (canine COX-1) was 28300 nM, the IC50 (canine COX-2 [1]; [3]) was 4210 nM and the “COX-1/COX-2 Ratio” value (canine COX-2 [2]; [4]) was 6.72.

C=CCOc1ccc(CC(=O)O)cc1Cl [Alclofenac, 3-chloro-4-(2-propenyloxy)-benzene acetic acid] was tested, and the IC50 (canine COX-1) was 13200 nM, the IC50 (canine COX-2 [1]; [3]) was 7410 nM and the “COX-1/COX-2 Ratio” value (canine COX-2 [2]; [4]) was 1.78.

CC(=O)Oc1ccccc1C(=O)O [Aspirin, 2-(acetyloxy)-benzoic acid] was tested, and the IC50 (canine COX-1) was 34300 nM, the IC50 (canine COX-2 [1]) was > 100000 nM and the “COX-1/COX-2 Ratio” value (canine COX-2 [2]; [4]) was <0.343.

C[C@@H](C(=O)O)c1ccc2c(c1)[nH]c1ccc(Cl)cc12 [Carprofen (R-)] was tested, and the IC50 (canine COX-1) was > 25000 nM and the IC50 (canine COX-2 [1]) was 5970 nM.

C[C@H](C(=O)O)c1ccc2c(c1)[nH]c1ccc(Cl)cc12 [Carprofen (S-), (S)-6-chloro-α-methyl-carbazole-2-acetic acid] was tested, and the IC50 (canine COX-1) was 6710 nM and the IC50 (canine COX-2 [1]) was 37.1 nM.

With CCc1cccc2c3c([nH]c12)C(CC)(CC(=O)O)OCC3 (stereo not shown) [Etodolac, 1,8-diethyl-1,3,4,9-tetrahydro-pyrano[3,4-b]indole-1-acetic acid] the IC50 (canine COX-1) was 1330 nM, the IC50 (canine COX-2 [1]) was 2570 nM and the “COX-1/COX-2 Ratio” value (canine COX-2 [2]) was 0.517.

In the case of O=C(O)Cc1ccc(-c2ccccc2)cc1 [Felbinac, [1,1′-biphenyl]-4-acetic acid], the IC50 (canine COX-1) is reported as 2540 nM, the IC50 (canine COX-2 [1]; [3]) is reported as 362 nM and the “COX-1/COX-2 Ratio” value (canine COX-2 [2]; [4]) is reported as 7.01.

For O=C(O)c1ccccc1Nc1cccc(C(F)(F)F)c1 [Flufenamic acid, 2-{[3-(trifluoromethyl)phenyl]amino}-benzoic acid], the IC50 (canine COX-1) was 2310 nM, the IC50 (canine COX-2 [1]; [3]) was 47.5 nM and the “COX-1/COX-2 Ratio” value (canine COX-2 [2]; [4]) was 48.6.

In the case of Cc1c(Nc2ncccc2C(=O)O)cccc1C(F)(F)F [Flunixin, 2-{[2-methyl-3-(trifluoromethyl)-phenyl]amino}-3-pyridinecarboxylic acid; compounded with 1-deoxy-1-(methylamino)-D-glucitol(1:1)], the IC50 (canine COX-1) is reported as 7.68 nM, the IC50 (canine COX-2 [1]; [3]) is reported as 12.1 nM and the “COX-1/COX-2 Ratio” value (canine COX-2 [2]; [4]) is reported as 0.635.

Molecule CC(C(=O)O)c1ccc(-c2ccccc2)c(F)c1 (stereo not drawn) [Flurbiprofen, 2-fluoro-α-methyl-[1,1′-biphenyl]-4-acetic acid] has an IC50 (canine COX-1) of 505 nM.

With NC(=O)N1C(=O)C(C(=O)c2cccs2)c2cc(F)c(Cl)cc21 (stereo not shown) [Ilonidap, 6-chloro-5-fluoro-2,3-dihydro-(hydroxy-2-thienylmethylene)-2-oxo-1H-indole-1-carboxamide] the IC50 (canine COX-1) was 472 nM, the IC50 (canine COX-2 [1]; [3]) was 270 nM and the “COX-1/COX-2 Ratio” value (canine COX-2 [2]; [4]) was 1.75.

For CC(C(=O)O)c1cccc(C(=O)c2ccccc2)c1 (stereo not drawn) [Ketoprofen, 3-benzoyl-α-methyl-benzeneacetic acid], the IC50 (canine COX-2 [1]) was 123 nM.

In the case of Cc1ccc(Cl)c(Nc2ccccc2C(=O)O)c1Cl [Meclofenamic acid, 2-[(2,6-dichloro-3-methylphenyl)amino]-benzoic acid], the IC50 (canine COX-1) is reported as 737 nM, the IC50 (canine COX-2 [1]; [3]) is reported as 47.8 nM and the “COX-1/COX-2 Ratio” value (canine COX-2 [2]; [4]) is reported as 15.4.

In the case of Cc1cccc(Nc2ccccc2C(=O)O)c1C [Mefenamic acid, 2-[(2,3-dimethylphenyl)amino]-benzoic acid], the IC50 (canine COX-1) is reported as 403 nM, the IC50 (canine COX-2 [1]) is reported as 36.2 nM and the “COX-1/COX-2 Ratio” value (canine COX-2 [2]; [4]) is reported as 11.1.

Cc1cnc(NC(=O)C2=C(O)c3ccccc3S(=O)(=O)N2C)s1 [Meloxicam, 4-hydroxy-2-methyl-N-(5-methyl-2-thiazolyl)-2H-1,2-benzothiazine-3-carboxamide] was tested, and the IC50 (canine COX-1) was 891 nM.

With CS(=O)(=O)Nc1ccc([N+](=O)[O-])cc1OC1CCCCC1 [NS-398, N-[2-(cyclohexyloxy)-4-nitrophenyl]-methanesulfonamide] the IC50 (canine COX-1) was 587 nM.

Molecule COc1ccc2cc(C(C)C(=O)O)ccc2c1 (stereo not drawn) [Naproxen, 6-methoxy-α-methyl-2-naphthaleneacetic acid] has an IC50 (canine COX-2 [1]) of 626 nM.

O=C(O)c1cccnc1Nc1cccc(C(F)(F)F)c1 [Niflumic acid, 2-[3-(trifluoromethyl)anilino]nicotinic acid] was tested, and the IC50 (canine COX-1) was 1030 nM, the IC50 (canine COX-2 [1]; [3]) was 46.4 nM and the “COX-1/COX-2 Ratio” value (canine COX-2 [2]; [4]) was 22.2.

CS(=O)(=O)Nc1ccc([N+](=O)[O-])cc1Oc1ccccc1 [Nimesulide, 4′-nitro-2′-phenoxymethanesulfonanilide] was tested, and the IC50 (canine COX-2 [1]) was 56.5 nM.

CCCCC1C(=O)N(c2ccccc2)N(c2ccccc2)C1=O [Phenylbutazone, 4-butyl-1,2-diphenyl-3,5pyrazolidinedione] was tested, and the IC50 (canine COX-2 [1]; [3]) was 3790 nM.

CN1C(C(=O)Nc2ccccn2)=C(O)c2ccccc2S1(=O)=O [Piroxicam, 4-hydroxyy-2-methyl-N-2-pyridinyl-2H-1,2-benzothiazine-3-carboxamide-1,1-dioxide] showed an IC50 (canine COX-1) of 223 nM.

For NC(=O)N1C(=O)C(C(=O)c2cccs2)c2cc(Cl)ccc21 (stereo not shown) [Tenidap, 5-chloro-2,3-dihydro-3-(hydroxy-2-thienylmethylene)-2-oxo-1H-indole-1-carboxamide], the IC50 (canine COX-1) was 469 nM.

In the case of Cc1c(Cl)cccc1Nc1ccccc1C(=O)O [Tolfenamic acid, N-(3-chloro-o-tolyl)-anthranilic acid], the IC50 (canine COX-1) is reported as 206 nM, the IC50 (canine COX-2 [1]; [3]) is reported as 13.7 nM and the “COX-1/COX-2 Ratio” value (canine COX-2 [2]; [4]) is reported as 15.0.
